Assay results as given in patent publication US20230263808A1 (UNIVERSITY OF FLORIDA RESEARCH FOUNDATION, INCORPORATED, priority 2020, published 2023).
“Also recorded” adds a separate entry of the source.

Tests used:
C2C12 myotubes = experiment: Insulin-induced protein synthesis (SUnSET, In-Cell Western) in C2C12 myotubes; format: cell-based, mouse; conditions: for effect on insulin-induced protein synthesis: differentiated myotubes, nutrient-deprived, insulin challenge
Experimental: (§1) A) C2C12 myotubes were assayed for chymotrypsin-like proteasomal activity. […] C) Quantitation of the ICW in panel B. D) ICW for surface expression of Glut4 on L6 myotubes. E) ICW for insulin-induced incorporation of puromycin into C2C12 myotube surface proteins. F-G) High-content imaging and analysis of C2C12 myoblasts stained with a Mitotracker dye. H) Assay reproducibility from screening 22 compounds on two separate occasions. The Pearson correlation coefficient, r, and its associated p-value is indicated.
(§2) C2C12 myocytes were used in all assays, except in the Glut4 translocation assay where L6 rat myocytes were used. ICW, In-Cell Western. Also see Methods.
To avoid such effects on myogenesis, we switched myoblasts to differentiation media, and then on day 4, added 10 μM cytarabine, a chemotherapy agent that kills dividing cells, and then adding GCs on day 6 or 7 and completing assays in day 8 (FIG. 8).
(§3) Physiologically, the effects of GCs on protein balance and Glut4 translocation vary in vivo depending upon the stressor. For example, GCs mediate atrophy in response to fasting but not exercise. […] To assess protein degradation, we measured chymotrypsin-like proteasomal activity (FIG. 2, A). The activating phosphorylation of AKT at Thr308 (pAKT) was measured using a LI-COR In-Cell Western assay (FIG. 2, B and C). The rate-limiting step in insulin-mediated glucose uptake is the translocation of the glucose transporter, Glut4, to the surface membrane, which we also measured by In-Cell Western without permeabilizing the myotubes (FIG. 2, D). Surface Sensing of Translation (SUnSET) (Schmidt et al., Nat Methods 6, 275-277, 2009) assay was used to measure protein synthesis by In-Cell Western, following treatment of myotubes with a low dose of puromycin, which incorporates into translating proteins, but at a low enough level to provide a readout for global protein synthesis (FIG. 2, E). Lastly, we developed a high-content imaging assay in myoblasts stained with a MitoTracker dye, so that individual mitochondrial networks could be visualized with adequate resolution to quantitate area, segmentation, branching, and fluorescence intensity which is a measure of mitochondrial membrane potential (ψm).

C2C12 myoblasts = experiment: Mitochondrial potential, high-content imaging with MitoTracker dye; format: cell-based, mouse
Experimental: as §1
A) Each dot represents the effects of a compound in the indicated assays at 10 uM. N=4-6 from two different experiments. […] C) SR11466 is efficacious at inhibiting IL-6 secretion from A549 cells. C-E). […] D) Mitochondrial activity was measured in myoblasts using high content imaging with mitotracker dye after 24 treatment. New amino acid incorporation was measured with LICOR in cell western for puromycin (SunSet assay). E) top, MMTV-luciferase reporter data. N=3, mean+SEM. Bottom, Mineralization of primary human OBs was assayed after two weeks of differentiation from MSC and two weeks of mineralization. N=4, mean+SEM, 2-way ANOVA.
as §3

[1] = Loss of lean mass after a larger dose of LPS (whole-body NMR); format: in vivo, C57BL/6 male mice; conditions: additional 18 h LPS treatment
Source text: A) Correlation of correlation (COC) plots where each point represents the Pearson correlation coefficient, r, between a distinct gene expression or GR-peptide interaction assay with assays indicated on the x and y axes. B) The effects of all tested compounds on IL-1β-induced secretion of IL-6 (y axes) and GC-regulated phenotypes indicated on the x axes. C) The effects of all tested compounds on IL-1β-induced secretion of IL-6 (y axis) and bone mineralization (x axis). D) IL-1β-induced IL-6 production by A549 cells treated with 10 μM of the indicated compounds was compared by AlphaLISA. E-H) Myoblasts were assayed as described in FIG. 8. I) Representative myoblasts imaged during the mitochondrial potential assay. J) Plasma TNFα levels of C57BL/6 male mice treated pretreated with the indicated ligands. K) Changes in lean mass of mice in panel J were determined by whole-body NMR after an additional 18 h LPS treatment. Data shown are mean+SEM.

[2] = Pharmacokinetics for in vivo dosing
L6 myotubes = experiment: Glut4 translocation to the myotube surface (In-Cell Western); format: cell-based, rat
Experimental: as §1, §2, §3

GILZ mRNA = experiment: GILZ gene expression; format: cell-based

| Compound | effect on insulin-induced protein synthesis (C2C12 myotubes) | effect on mitochondrial activity / potential (C2C12 myoblasts) | loss of lean mass following a larger dose of LPS [1] | pharmacokinetics for in vivo dosing [2] | anabolic effect on protein synthesis in combination with Dex (C2C12 myotubes; C2C12 myotubes, with Dex) | effect on Glut4 translocation (L6 myotubes) | GILZ gene expression (GILZ mRNA) |
| --- | --- | --- | --- | --- | --- | --- | --- |
| C=CCOC1CC2(C)C(CCC2(O)C#CC)C2CCc3cc(C(=O)Nc4cccnc4C)ccc3C12 (stereo not drawn) [SR11466] | slightly anabolic | enhanced | significantly better than Dex | favorable pharmacokinetics | – | – | – |
| CC#CC1(O)CCC2C3CCc4cc(C(=O)Nc5cccnc5C)ccc4C3C(OCc3ccccc3Cl)CC21C (stereo not drawn) [SR16024] | doubling; also recorded: robustly stimulated protein synthesis | enhanced; also recorded: doubling; also recorded: anabolic profile in mitochondria | protective | favorable pharmacokinetics | right-shift in the dose curve; also recorded: Dex inhibits | no inhibition | not activating GILZ |
| CC#CC1(O)CCC2C3CCc4cc(C(=O)Nc5cccnc5C)ccc4C3C(OCc3ccc(Cl)cc3)CC21C (stereo not drawn) [SR16025] | – | – | – | – | – | – | not activating GILZ |
